# In patent publication US9615576B2, “Pesticidal compositions and processes related thereto” (Dow AgroSciences LLC, priority 2011, dated 2017):
# Legend:
# [1] = system: Beet Armyworm (BAW) (Spodoptera exigua); assay: Bioassays on Beet Armyworm (BAW), 128-well diet tray assay; format: in vivo; conditions: 168 h, 50 μg/cm^2 test compound on artificial diet, second instar larvae, 25° C., five to seven days, average of eight wells, read-out: BAW Rating (% mortality)
# Procedure, shortened: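 Second-instar larvae (1–5 per well) on artificial diet surface-treated with 50 μg/cm^2 compound applied in 90:10 acetone-water and dried; eight wells per compound. Held 5–7 days at 25° C., 14:10 light-dark. Percent mortality scored per well and averaged over eight wells.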
# [2] = system: Corn Earworm (CEW) (Helicoverpa zea); assay: Bioassays on Corn Earworm (CEW), 128-well diet tray assay; format: in vivo; conditions: 168 h, 50 μg/cm^2 test compound on artificial diet, second instar larvae, 25° C., five to seven days, average of eight wells, read-out: CEW Rating (% mortality)
# Procedure, shortened: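 Second-instar larvae (one to five per well) placed on artificial diet treated with 50 μg/cm^2 compound in 90:10 acetone-water, dried; eight wells per compound. Held at 25° C, 14:10 light-dark, five to seven days; percent mortality averaged over wells.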
SMILES,mortality at 50 µg/cm2 [1] [%],mortality at 50 µg/cm2 [2] [%]
O=C(CC(F)(F)F)NOc1ccc(/C=C/C(c2cc(Cl)c(Cl)c(Cl)c2)C(F)(F)F)cc1 (stereo not shown) [CC53],0,0
"O=C(CC(F)(F)F)NCc1ccc(/C=C\C(c2cc(Cl)c(Cl)c(Cl)c2)C(F)(F)F)cc1 (stereo not shown) [CC54, (Z)-3,3,3-trifluoro-N-(4-(4,4,4-trifluoro-3-(3,4,5-trichlorophenyl)but-1-en-1-yl)benzyl)propanamide]",50 to 100,50 to 100
"FC(F)(F)C(/C=C/c1ccc(-n2cncn2)cc1)c1cc(Cl)cc(Cl)c1 (stereo not shown) [DC1, (E)-1-(4-(3-(3,5-dichlorophenyl)-4,4,4-trifluorobut-1-en-1-yl)phenyl)-1H-1,2,4-triazole]",50 to 100,50 to 100
FC(F)(F)C(/C=C/c1ccc(-n2cncn2)cc1)c1cccc(Cl)c1 (stereo not shown) [DC2],0,0
FC(F)(F)C(/C=C/c1ccc(-n2cncn2)cc1)c1ccccc1 (stereo not shown) [DC3],0 to 50,0
FC(F)(F)C(/C=C/c1ccc(-n2cncn2)cc1)c1ccc(Cl)cc1 (stereo not shown) [DC4],50 to 100,0
Cc1ccc(C(/C=C/c2ccc(-n3cncn3)cc2)C(F)(F)F)cc1 (stereo not shown) [DC5],0,0
COc1ccc(C(/C=C/c2ccc(-n3cncn3)cc2)C(F)(F)F)cc1 (stereo not shown) [DC6],0,0
Fc1ccc(C(/C=C/c2ccc(-n3cncn3)cc2)C(F)(F)F)cc1 (stereo not shown) [DC7],50 to 100,0
Fc1cc(F)cc(C(/C=C/c2ccc(-n3cncn3)cc2)C(F)(F)F)c1 (stereo not shown) [DC8],50 to 100,0
Fc1cccc(C(/C=C/c2ccc(-n3cncn3)cc2)C(F)(F)F)c1 (stereo not shown) [DC9],0,0
Fc1ccccc1C(/C=C/c1ccc(-n2cncn2)cc1)C(F)(F)F (stereo not shown) [DC10],0,0
Cc1cc(C)cc(C(/C=C/c2ccc(-n3cncn3)cc2)C(F)(F)F)c1 (stereo not shown) [DC11],50 to 100,0
FC(F)(F)C(/C=C/c1ccc(-n2cncn2)cc1)c1ccc(Cl)c(Cl)c1 (stereo not shown) [DC12],50 to 100,50 to 100
FC(F)(F)C(/C=C/c1ccc(-n2cncn2)cc1)c1ccc(Cl)cc1Cl (stereo not shown) [DC13],50 to 100,50 to 100
FC(F)(F)C(/C=C/c1ccc(-n2cncn2)cc1)c1cccc(Cl)c1Cl (stereo not shown) [DC14],0,0
FC(F)(F)C(/C=C/c1ccc(-n2cncn2)cc1)c1cc(Cl)ccc1Cl (stereo not shown) [DC15],0,0
FC(F)(F)c1cc(C(/C=C/c2ccc(-n3cncn3)cc2)C(F)(F)F)cc(C(F)(F)F)c1 (stereo not shown) [DC16],50 to 100,50 to 100
FC(F)(F)C(/C=C/c1ccc(-n2cncn2)cc1)c1cc(Cl)cc(Cl)c1Cl (stereo not shown) [DC17],50 to 100,50 to 100
FC(F)(F)C(/C=C/c1ccc(-n2cncn2)cc1)c1cc(Cl)c(Cl)c(Cl)c1 (stereo not shown) [DC18],50 to 100,50 to 100
FC(F)(F)c1cc(Cl)cc(C(/C=C/c2ccc(-n3cncn3)cc2)C(F)(F)F)c1 (stereo not shown) [DC19],50 to 100,50 to 100
COc1c(Cl)cc(C(/C=C/c2ccc(-n3cncn3)cc2)C(F)(F)F)cc1Cl (stereo not shown) [DC20],50 to 100,0
Cc1ncn(-c2ccc(/C=C/C(c3cc(Cl)cc(Cl)c3)C(F)(F)F)cc2)n1 (stereo not shown) [DC21],0,0
O=[N+]([O-])c1ncn(-c2ccc(/C=C/C(c3cc(Cl)cc(Cl)c3)C(F)(F)F)cc2)n1 (stereo not shown) [DC22],0,0
Cc1ncnn1-c1ccc(/C=C/C(c2cc(Cl)cc(Cl)c2)C(F)(F)F)cc1 (stereo not shown) [DC23],0,50 to 100
CC(=O)c1ncnn1-c1ccc(/C=C/C(c2cc(Cl)cc(Cl)c2)C(F)(F)F)cc1 (stereo not shown) [DC24],0,0
CSc1ncnn1-c1ccc(/C=C/C(c2cc(Cl)cc(Cl)c2)C(F)(F)F)cc1 (stereo not shown) [DC25],0,0

SMILES,mortality at 50 µg/cm2 [1] [%],mortality at 50 µg/cm2 [2] [%]
O=C(c1ncnn1-c1ccc(/C=C/C(c2cc(Cl)cc(Cl)c2)C(F)(F)F)cc1)C1CC1 (stereo not shown) [DC26],0,0
CS(=O)(=O)c1ncnn1-c1ccc(/C=C/C(c2cc(Cl)cc(Cl)c2)C(F)(F)F)cc1 (stereo not shown) [DC27],0,0
N#Cc1cc(/C=C/C(c2ccc(Cl)c(Cl)c2)C(F)(F)F)ccc1-n1cncn1 (stereo not shown) [DC28],50 to 100,50 to 100
N#Cc1cc(/C=C/C(c2cc(Cl)cc(Cl)c2)C(F)(F)F)ccc1-n1cncn1 (stereo not shown) [DC29],50 to 100,50 to 100
N#Cc1cc(/C=C/C(c2cc(C(F)(F)F)cc(C(F)(F)F)c2)C(F)(F)F)ccc1-n1cncn1 (stereo not shown) [DC30],50 to 100,50 to 100
N#Cc1cc(/C=C/C(c2cc(Cl)c(Cl)c(Cl)c2)C(F)(F)F)ccc1-n1cncn1 (stereo not shown) [DC31],50 to 100,50 to 100
N#Cc1cc(/C=C/C(c2cccc(Cl)c2)C(F)(F)F)ccc1-n1cncn1 (stereo not shown) [DC32],0,0
N#Cc1cc(/C=C/C(c2cc(Cl)cc(C(F)(F)F)c2)C(F)(F)F)ccc1-n1cncn1 (stereo not shown) [DC33],50 to 100,50 to 100
COc1c(Cl)cc(C(/C=C/c2ccc(-n3cncn3)c(C#N)c2)C(F)(F)F)cc1Cl (stereo not shown) [DC34],50 to 100,50 to 100
N#Cc1cc(/C=C/C(c2cc(Cl)c(F)c(Cl)c2)C(F)(F)F)ccc1-n1cncn1 (stereo not shown) [DC35],50 to 100,50 to 100
Cc1ncn(-c2ccc(/C=C/C(c3cc(Cl)cc(Cl)c3)C(F)(F)F)cc2C#N)n1 (stereo not shown) [DC36],0,0
N#Cc1cc(/C=C/C(c2cc(Cl)cc(Cl)c2)C(F)(F)F)ccc1-n1cnc([N+](=O)[O-])n1 (stereo not shown) [DC37],50 to 100,50 to 100
N#Cc1cc(/C=C/C(c2cc(Cl)cc(Cl)c2)C(F)(F)F)ccc1-n1cnc(N)n1 (stereo not shown) [DC38],50 to 100,50 to 100
CC(=O)Nc1ncn(-c2ccc(/C=C/C(c3cc(Cl)cc(Cl)c3)C(F)(F)F)cc2C#N)n1 (stereo not shown) [DC39],50 to 100,50 to 100
"N#Cc1cc(/C=C/C(c2cc(Cl)c(Cl)c(Cl)c2)C(F)(F)F)ccc1-n1cnc([N+](=O)[O-])n1 (stereo not shown) [DC40, (E)-2-(3-nitro-1H-1,2,4-triazol-1-yl)-5-(4,4,4-trifluoro-3-(3,4,5-trichlorophenyl)but-1-en-1-yl)benzonitrile]",50 to 100,50 to 100
"N#Cc1cc(/C=C/C(c2cc(Cl)c(Cl)c(Cl)c2)C(F)(F)F)ccc1-n1cnc(N)n1 (stereo not shown) [DC41, (E)-2-(3-amino-1H-1,2,4-triazol-1-yl)-5-(4,4,4-trifluoro-3-(3,4,5-trichlorophenyl)but-1-en-1-yl)benzonitrile]",50 to 100,50 to 100
"N#Cc1cc(/C=C/C(c2cc(Cl)c(Cl)c(Cl)c2)C(F)(F)F)ccc1-n1cnc(N(C(=O)C2CC2)C(=O)C2CC2)n1 (stereo not shown) [DC42, (E)-N-(1-(2-cyano-4-(4,4,4-trifluoro-3-(3,4,5-trichlorophenyl)but-1-en-1-yl)phenyl)-1H-1,2,4-triazol-3-yl)-N-(cyclopropanecarbonyl)cyclopropanecarboxamide]",50 to 100,50 to 100
"N#Cc1cc(/C=C/C(c2cc(Cl)c(Cl)c(Cl)c2)C(F)(F)F)ccc1-n1cnc(NC(=O)C2CC2)n1 (stereo not shown) [DC43, (E)-N-(1-(2-cyano-4-(4,4,4-trifluoro-3-(3,4,5-trichlorophenyl)but-1-en-1-yl)phenyl)-1H-1,2,4-triazol-3-yl)cyclopropanecarboxamide]",50 to 100,50 to 100
Cc1cc(/C=C/C(c2cc(Cl)cc(Cl)c2)C(F)(F)F)cc(C#N)c1-n1cncn1 (stereo not shown) [DC44],50 to 100,50 to 100
Cc1cc(/C=C/C(c2cc(Cl)c(Cl)c(Cl)c2)C(F)(F)F)cc(C#N)c1-n1cncn1 (stereo not shown) [DC45],50 to 100,50 to 100
N#Cc1cc(/C=C\C(c2cc(Cl)c(F)c(Cl)c2)C(F)(F)F)ccc1-n1cncn1 (stereo not shown) [DC46],50 to 100,50 to 100
FC(F)(F)C(/C=C/c1ccc(-n2cncn2)c(Br)c1)c1cc(Cl)cc(Cl)c1 (stereo not shown) [DC47],50 to 100,50 to 100
Fc1cc(/C=C/C(c2cc(Cl)cc(Cl)c2)C(F)(F)F)ccc1-n1cncn1 (stereo not shown) [DC48],50 to 100,50 to 100
FC(F)(F)C(/C=C/c1ccc(-n2cncn2)c(Cl)c1)c1cc(Cl)c(Cl)c(Cl)c1 (stereo not shown) [DC49],50 to 100,50 to 100
FC(F)(F)C(/C=C/c1ccc(-n2cncn2)c(Cl)c1)c1cc(Cl)cc(Cl)c1 (stereo not shown) [DC50],50 to 100,50 to 100
FC(F)(F)c1cc(/C=C/C(c2cc(Cl)cc(Cl)c2)C(F)(F)F)ccc1-n1cncn1 (stereo not shown) [DC51],50 to 100,50 to 100
